Laboratory results as given in the NIST ThermoML archive (doi:10.1016/j.jct.2008.03.011).

What was measured:
[1] = xn = mol fraction of the nth substance listed; settings: 101 kPa, Liquid; for speed of sound: Sing-around technique in a fixed-path interferometer
[2] = refractive index (Na D-line) (dimensionless); xn = mol fraction of the nth substance listed; settings: 101 kPa, Liquid, Standard Abbe refractometry

CCC(C)=O [butanone] + C1CCCCC1
Settings | mass density, 293.15 K [kg/m3] | mass density, 298.15 K [kg/m3] | mass density, 303.15 K [kg/m3] | refractive index, 293.15 K | refractive index, 298.15 K | refractive index, 303.15 K | speed of sound, 293.15 K [m/s] | speed of sound, 298.15 K [m/s] | speed of sound, 303.15 K [m/s]
[1], x2 = 0 | 805.6 | 799.7 | 794.9 | – | – | – | 1212 | 1192 | 1163
[1], x2 = 0.0472 | 802.6 | 796.4 | 791.5 | – | – | – | 1212 | 1190 | 1159
[1], x2 = 0.0979 | 799.8 | 793.7 | 788.8 | – | – | – | 1213 | 1190 | 1159
[1], x2 = 0.1986 | 794.7 | 788.8 | 784 | – | – | – | 1212 | 1190 | 1158
[1], x2 = 0.2973 | 790.3 | 784.8 | 779.9 | – | – | – | 1212 | 1190 | 1158
[1], x2 = 0.3975 | 786.6 | 781.4 | 776.4 | – | – | – | 1216 | 1192 | 1161
[1], x2 = 0.497 | 783.7 | 778.4 | 773.5 | – | – | – | 1221 | 1198 | 1166
[1], x2 = 0.6045 | 781 | 776.1 | 771.1 | – | – | – | 1229 | 1204 | 1172
[1], x2 = 0.6922 | 779.5 | 774.6 | 769.6 | – | – | – | 1236 | 1212 | 1179
[1], x2 = 0.7984 | 778.2 | 773.4 | 768.5 | – | – | – | 1248 | 1222 | 1188
[1], x2 = 0.8978 | 777.8 | 773.1 | 768.2 | – | – | – | 1261 | 1236 | 1200
[1], x2 = 0.9476 | 778 | 773.2 | 768.5 | – | – | – | 1269 | 1244 | 1207
[2], x2 = 0 | – | – | – | 1.37879 | 1.37618 | 1.37355 | – | – | –
[2], x2 = 0.0472 | – | – | – | 1.38079 | 1.37811 | 1.3754 | – | – | –
[2], x2 = 0.0979 | – | – | – | 1.3829 | 1.38016 | 1.37748 | – | – | –
[2], x2 = 0.1986 | – | – | – | 1.38711 | 1.38436 | 1.38159 | – | – | –
[2], x2 = 0.2973 | – | – | – | 1.39144 | 1.38857 | 1.38588 | – | – | –
[2], x2 = 0.3975 | – | – | – | 1.39592 | 1.3929 | 1.39029 | – | – | –
[2], x2 = 0.497 | – | – | – | 1.40055 | 1.39774 | 1.39494 | – | – | –
[2], x2 = 0.6045 | – | – | – | 1.40575 | 1.4026 | 1.40014 | – | – | –
[2], x2 = 0.6922 | – | – | – | 1.41006 | 1.40723 | 1.40443 | – | – | –
[2], x2 = 0.7984 | – | – | – | 1.4153 | 1.4125 | 1.4097 | – | – | –
[2], x2 = 0.8978 | – | – | – | 1.42041 | 1.41769 | 1.41473 | – | – | –
[2], x2 = 0.9476 | – | – | – | 1.42316 | 1.42035 | 1.41746 | – | – | –
